Molecules are shown by their SMILES. Where “and” joins values, the source holds several entries; their conditions need not be identical. Identical values can stand only once. Like-named read-outs stand apart in the source and are kept apart here. Marks after values point to notes of the source that are not given here.

The source of these data is patent US20050234113A1, “Antioxidant and radical scavenging activity of synthetic analogs of desferrithiocin” (University of Florida Research Foundation, Inc., priority 2002, published 2005).

Experiment [1] concerns iron. In words: Iron clearance in the non iron-overloaded, bile duct-cannulated rodent model. The format is in vivo, Sprague-Dawley rats. How it is done:
Briefly, male Sprague-Dawley rats averaging 450 g were housed in Nalgene plastic metabolic cages during the experimental period and given free access to water. The animals were anesthetized using sodium pentobarbital (55 mg/kg) administered intraperitoneally. The bile duct was cannulated using 22-gauge polyethylene tubing. The cannula was inserted into the duct about 1 cm from the duodenum and tied snugly in place. After threading through the shoulder, the cannula was passed from the rat to the swivel inside a metal torque-transmitting tether, which was attached to a rodent jacket around the animal's chest. The cannula was directed from the rat to a Gilson microfraction collector (Middleton, Wis.) by a fluid swivel mounted above the metabolic cage. Bile samples were collected at 3 hour intervals for 24 hours. The urine sample was taken at 24 hours and handling was as previously described. (Bergeron, R. J., et al., J. Med. Chem. 34:2072-2078 (1991).
(§1) The iron chelators were solubilized in 40% Cremophor RH-40/water (v/v) and given orally and subcutaneously to the rats at the doses shown in Table 4. In the primates, DFO was dissolved in sterile H2O at a concentration of 50 or 100 mg/mL and given orally or subcutaneously at a volume of 1 ml/kg. The desferrithiocin analogues were solubilized in 40% Cremophor RH-40/water (v/v) and given orally to the monkeys at the doses shown in Table 4. However, the desferrithiocin analogues were administered subcutaneously as either a suspension in distilled H2O or as their sodium salts in solution as indicated in Table 4.
(§2) Iron clearance studies were carried out both in the non iron-overloaded, bile duct-cannulated rodent model and in the iron-overloaded Cebus apella monkey, and the results are reported as iron clearing efficiency (Table 4). This number is generated by dividing the net iron clearance [total iron excretion (bile or stool plus urine) minus background] by the theoretical iron clearance and multiplying by 100. The theoretical iron clearance is based on a 2:1 metal complex stoichiometry for 4′-(HO)-DADMDFT, a 1:1 stoichiometry for DFO, and a 1:1 stoichiometry for BDU, as shown in the Job's plot (FIG. 5). Data are presented as the mean±the standard error of the mean. The drugs were administered both orally (po) and subcutaneously (sc) to the rodents and primates; the positive control was DFO.

The subject of experiment [2] is iron. As to the kind of experiment: Iron clearance in the iron-overloaded Cebus apella monkey. As to conditions: 300 μmol/kg sc, as sodium salt. It is filed as in vivo. How it is done:
The monkeys were iron overloaded with intravenous iron dextran to provide about 500 mg iron per kg body weight. The serum transferrin iron saturation rose to between 70 and 80%. At least twenty half-lives, sixty days, elapsed before any of the animals were used in experiments evaluating iron-chelating agents.
Fecal and urine samples were collected at 24 hour intervals and processed. Briefly, the collections began 4 days prior to the administration of the test drug and continued for an additional 5 days after the drug was given. Iron concentrations were determined by flame atomic absorption spectroscopy.
as §1, §2

The subject of experiment [3] is iron. As to conditions: cited from earlier work.

Regarding `O=C(O)[C@H]1CSC(c2ccc(O)cc2O)=N1` [4′-(HO)-DADMDFT, 4′-hydroxydesazadesmethyldesferrithiocin], in the experiment with iron [1] (300 μmol/kg po), the “% bile (of iron excreted), rodents” value is recorded as 100%; the “% urine (of iron excreted), rodents” value worked out at 0%; the “efficiency in rodents (%)” value was determined as 2.9±2.8%. Further, in the experiment on iron [1] (300 μmol/kg sc), the “% bile (of iron excreted), rodents” value came out at 90%; the “% urine (of iron excreted), rodents” value is recorded as 10%; the “efficiency in rodents (%)” value stood at 2.1±0.9%. In the experiment on iron [2], the “% stool (of iron excreted), monkeys” value is listed as 75%; the “% urine (of iron excreted), monkeys” value is on record as 25%; the “efficiency in monkeys (%)” value is 5.3±1.7% and 5.3 ± 1.7^g %.
As to `CC(=O)N(O)CCCCCNC(=O)CCC(=O)N(O)CCCCCNC(=O)CCC(=O)N(O)CCCCCN` [DFO, Desferrioxamine B, reference compound], in the experiment with iron [3] (150 μmol/kg po, n = 3), the “% bile (of iron excreted), rodents” value is 87%; the “% urine (of iron excreted), rodents” value is reported as 13%; the “efficiency in rodents (%)” value is 1.1 ± 0.6^c %. Further, in the experiment on iron [3] (150 μmol/kg sc, n = 6), the “% bile (of iron excreted), rodents” value is 75%; the “% urine (of iron excreted), rodents” value is recorded as 25%; the “efficiency in rodents (%)” value was 2.8 ± 0.7%.
